From patent US20260062422A1 (Halda Therapeutics OpCo, Inc., priority 2022, published 2026)

What was measured:
[1] = system: T-Rex 293 cell line SC3 cells having increased expression of androgen receptor protein due to exposure to doxycycline; assay: Cellular growth inhibition, T-Rex 293 SC3 cells with doxycycline (androgen receptor induced), CellTiter-Glo; format: cell-based; conditions: T-Rex 293 SC3 cells with 10 ng/mL doxycycline (increased androgen receptor expression)
Summary of the method: (§1)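 GI50 came from a four-parameter fit of CellTiter-Glo 2.0 luminescence after 72 h compound exposure (0.5% DMSO, 37 °C), dosing 24 h post-seeding. SC3 clone cells (2500/well), transfected with wild-type androgen receptor, grew in charcoal-stripped serum medium lacking phenol red, induced with 10 ng/mL doxycycline or left uninduced.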

[2] = system: T-Rex 293 cell line SC3 cells lacking increased expression of androgen receptor protein; assay: Cellular growth inhibition, T-Rex 293 SC3 cells without doxycycline, CellTiter-Glo; format: cell-based; conditions: T-Rex 293 SC3 cells not exposed to doxycycline, CellTiter-Glo 2.0
Summary of the method: as §1

VCaP cells = assay: Cellular growth inhibition assay for VCaP cells, CellTiter-Glo; format: cell-based, human; conditions: 72 hours treatment, CellTiter-Glo 2.0
Summary of the method: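 GI50 values come from four-parameter curve fits of luminescence data normalized to a zero baseline. Compound, in medium with 0.5% DMSO, was added one day after plating and left for 72 h before CellTiter-Glo 2.0 addition.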

T47D cells = assay: Cellular growth inhibition assay for T47D cells, CellTiter-Glo; format: cell-based, human; conditions: 72 hours treatment, CellTiter-Glo 2.0 cell viability
Summary of the method: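 Luminescence from CellTiter-Glo 2.0 after 72 h of compound exposure gives the viability signal. Cells grew in insulin-supplemented (0.2 units/mL) DMEM with 10% FBS and were treated one day after seeding at 0.5% DMSO. GI50 values come from four-parameter nonlinear regression.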

SMILES | GI50 ([1]; 72 h) [nM] | GI50 ([2]; 72 h) [nM] | GI50 (VCaP cells; Homo sapiens, VCaP, 72 h) [nM] | GI50 (T47D cells; Homo sapiens, T47D, 72 h) [nM] | GI50 ([1]; 72 hours) [nM] | GI50 (VCaP cells) [nM] | GI50 (T47D cells) [nM] | GI50 ([2]; 72 hours) [nM]
Cc1sc2c(c1C)C(c1ccc([C@H]3C[C@@H](C4CCN(c5ncc(C(=O)N[C@H]6C(C)(C)[C@H](Oc7ccc(C#N)c(Cl)c7)C6(C)C)cn5)CC4)C3)cc1)=N[C@@H](Cc1ncco1)c1nnc(C)n1-2 [Compound I-398] | < 500 | > 3000 | < 500 | < 500 |  |  |  | 
Cc1sc2c(c1C)C(c1ccc(CC[C@H]3C[C@@]4(CCCN(c5ncc(C(=O)N[C@H]6C(C)(C)[C@H](Oc7ccc(C#N)c(Cl)c7)C6(C)C)cn5)C4)C3)cc1)=N[C@@H](C)c1nnc(C)n1-2 [Compound I-368] | < 500 | > 3000 | < 500 | < 500 |  |  |  | 
Cc1sc2c(c1C)C(c1ccc(C(C)(C)N3CC4(CCN(c5ncc(C(=O)N[C@H]6C(C)(C)[C@H](Oc7ccc(C#N)c(Cl)c7)C6(C)C)cn5)CC4)C3)cc1)=N[C@@H](Cc1ncco1)c1nnc(C)n1-2 [Compound I-438] |  | 1500 to 3000 |  |  | < 500 | 500 to 1500 | > 3000 | 
Cc1sc2c(c1C)C(c1ccc([C@@H]3CCCCN3C(=O)[C@H]3CCCN(c4ncc(C(=O)N[C@H]5C(C)(C)[C@@H](Oc6ccc(C#N)c(Cl)c6)C5(C)C)cn4)C3)cc1)=N[C@@H](Cc1ncco1)c1nnc(C)n1-2 [Compound I-360] | < 500 | > 3000 | < 500 | > 3000 |  |  |  | 
Cc1sc2c(c1C)C(c1ccc(C(=O)N3CCN(CCc4ncc(C(=O)N[C@H]5C(C)(C)[C@H](Oc6ccc(C#N)c(Cl)c6)C5(C)C)cn4)CC3)cc1)=N[C@@H](Cc1ncco1)c1nnc(C)n1-2 [Compound I-333] | > 3000 | > 3000 | > 3000 | > 3000 |  |  |  | 
Cc1sc2c(c1C)C(c1ccc(CCO[C@@H]3CCCN(c4ncc(C(=O)N[C@H]5C(C)(C)[C@H](Oc6ccc(C#N)c(Cl)c6)C5(C)C)cn4)C3)cc1)=N[C@@H](C)c1nnc(C)n1-2 [Compound I-367] | < 500 | > 3000 | < 500 | 500 to 1500 |  |  |  | 
Cc1sc2c(c1C)C(c1ccc([C@H]3CC[C@@]4(C3)CN(c3ncc(C(=O)N[C@H]5C(C)(C)[C@H](Oc6ccc(C#N)c(Cl)c6)C5(C)C)cn3)CCO4)cc1)=N[C@@H](Cc1ncco1)c1nnc(C)n1-2 [Compound I-428] | < 500 | > 3000 | > 3000 | > 3000 |  |  |  | 
Cc1sc2c(c1C)C(c1ccc(N(C)CC(=O)NCc3ncc(C(=O)N[C@H]4C(C)(C)[C@H](Oc5ccc(C#N)c(Cl)c5)C4(C)C)cn3)cc1)=N[C@@H](Cc1ncco1)c1nnc(C)n1-2 [Compound I-373] | > 3000 | > 3000 | > 3000 | > 3000 |  |  |  | 
Cc1sc2c(c1C)C(c1ccc([C@H]3C[C@H]([C@@H]4CCCN(c5ncc(C(=O)N[C@H]6C(C)(C)[C@H](Oc7ccc(C#N)c(Cl)c7)C6(C)C)cn5)C4)C3)cc1)=N[C@@H](Cc1ncco1)c1nnc(C)n1-2 [Compound I-423] |  |  |  |  | < 500 | < 500 | 500 to 1500 | > 3000
Cc1sc2c(c1C)C(c1ccc(CCN3CC[C@@]4(C3)CN(c3ncc(C(=O)N[C@H]5C(C)(C)[C@H](Oc6ccc(C#N)c(Cl)c6)C5(C)C)cn3)CC(F)(F)C4)cc1)=N[C@@H](Cc1ncco1)c1nnc(C)n1-2 [Compound I-425] | < 500 | > 3000 | < 500 | < 500 |  |  |  | 
Cc1sc2c(c1C)C(c1ccc(C[C@H]3C[C@]4(CCCN(c5ncc(C(=O)N[C@H]6C(C)(C)[C@H](Oc7ccc(C#N)c(Cl)c7)C6(C)C)cn5)C4)C3)cc1)=N[C@@H](C)c1nnc(C)n1-2 [Compound I-394] | < 500 | > 3000 | < 500 | < 500 |  |  |  | 
Cc1sc2c(c1C)C(c1ccc(C[C@H]3C[C@H]([C@@H]4CCCN(c5ncc(C(=O)N[C@H]6C(C)(C)[C@H](Oc7ccc(C#N)c(Cl)c7)C6(C)C)cn5)C4)C3)cc1)=N[C@@H](Cc1ncco1)c1nnc(C)n1-2 [Compound I-162] | < 500 | < 500 | < 500 | < 500 |  |  |  | 
Cc1sc2c(c1C)C(c1ccc(OCCC3CCN(c4ncc(C(=O)N[C@H]5C(C)(C)[C@H](Oc6ccc(C#N)c(Cl)c6)C5(C)C)cn4)CC3)cc1)=NC(Cc1ncco1)c1nnc(C)n1-2 (stereo partly drawn) [Compound I-167] | < 500 | 500 to 1500 | < 500 | 500 to 1500 |  |  |  | 
Cc1sc2c(c1C)C(c1ccc(N3CCC[C@H](C(=O)N4CCC[C@H](c5ncc(C(=O)N[C@H]6C(C)(C)[C@H](Oc7ccc(C#N)c(Cl)c7)C6(C)C)cn5)C4)C3)cc1)=N[C@H](Cc1ncco1)c1nnc(C)n1-2 [Compound I-338] | > 3000 | > 3000 | > 3000 | > 3000 |  |  |  | 
Cc1sc2c(c1C)C(c1ccc(C3CC3C3CC4(CCN(c5ncc(C(=O)N[C@H]6C(C)(C)[C@H](Oc7ccc(C#N)c(Cl)c7)C6(C)C)cn5)CC4)C3)cc1)=N[C@H](Cc1ncco1)c1nnc(C)n1-2 (stereo partly drawn) [Compound I-150] | < 500 | > 3000 | < 500 | > 3000 |  |  |  | 
Cc1sc2c(c1C)C(c1ccc(OC3CCN(C4CCN(c5ncc(C(=O)N[C@H]6C(C)(C)[C@H](Oc7ccc(C#N)c(Cl)c7)C6(C)C)cn5)CC4)CC3)cc1)=N[C@@H](C)c1nnc(C)n1-2 [Compound I-325] | < 500 | 1500 to 3000 | > 3000 | 500 to 1500 |  |  |  | 
Cc1sc2c(c1C)C(c1ccc(O[C@@H]3CO[C@]4(CCCN(c5ncc(C(=O)N[C@H]6C(C)(C)[C@H](Oc7ccc(C#N)c(Cl)c7)C6(C)C)cn5)C4)C3)cc1)=N[C@@H](Cc1ncco1)c1nnc(C)n1-2 [Compound I-187] | < 500 | < 500 | < 500 | < 500 |  |  |  | 
Cc1sc2c(c1C)C(c1ccc(CCN3CC4(CCCN(c5ncc(C(=O)N[C@H]6C(C)(C)[C@H](Oc7ccc(C#N)c(Cl)c7)C6(C)C)cn5)C4)C3)cc1)=N[C@@H](Cc1ncco1)c1nnc(C)n1-2 [Compound I-272] | < 500 | 500 to 1500 | < 500 | < 500 |  |  |  | 
Cc1sc2c(c1C)C(c1ccc(OC[C@@H]3CCCN(c4ncc(C(=O)N[C@H]5C(C)(C)[C@H](Oc6ccc(C#N)c(Cl)c6)C5(C)C)cn4)C3)cc1)=N[C@@H](C)c1nnc(C)n1-2 [Compound I-352] | < 500 | > 3000 | < 500 | > 3000 |  |  |  | 
Cc1sc2c(c1C)C(c1ccc(C(=O)N3CC[C@@]4(CCCN(c5ncc(C(=O)N[C@H]6C(C)(C)[C@H](Oc7ccc(C#N)c(Cl)c7)C6(C)C)cn5)C4)C3)cc1)=N[C@H](Cc1ncco1)c1nnc(C)n1-2 [Compound I-257] | < 500 | > 3000 | > 3000 | 1500 to 3000 |  |  |  | 
Cc1sc2c(c1C)C(c1ccc(N3C[C@@H]4[C@H](C3)[C@H]4Nc3ncc(C(=O)N[C@H]4C(C)(C)[C@H](Oc5ccc(C#N)c(Cl)c5)C4(C)C)cn3)cc1)=N[C@@H](Cc1ncco1)c1nnc(C)n1-2 [Compound I-657] | < 500 | < 500 | < 500 | < 500 |  |  |  | 
Cc1sc2c(c1C)C(c1ccc(CCN3CC[C@@]4(C3)CN(c3ncc(C(=O)N[C@H]5C(C)(C)[C@H](Oc6ccc(C#N)c(Cl)c6)C5(C)C)cn3)CCO4)cc1)=N[C@@H](Cc1ncco1)c1nnc(C)n1-2 [Compound I-243] | < 500 | < 500 | < 500 | < 500 |  |  |  | 
Cc1noc2c1-c1ccccc1C(c1ccc(O[C@H]3C[C@]4(CN(c5ncc(C(=O)N[C@H]6C(C)(C)[C@H](Oc7ccc(C#N)c(Cl)c7)C6(C)C)cn5)CCO4)C3)cc1)=N[C@@H]2Cc1ncco1 [Compound I-224] | < 500 | > 3000 | < 500 | > 3000 |  |  |  | 
Cc1sc2c(c1C)C(c1ccc(N3CC(C4CCN(c5ncc(C(=O)N[C@H]6C(C)(C)[C@H](Oc7ccc(C#N)c(Cl)c7)C6(C)C)cn5)C4)C3)cc1)=N[C@@H](C)c1nnc(C)n1-2 (stereo partly drawn) [Compound I-616] | < 500 | < 500 | < 500 | < 500 |  |  |  | 
Cc1sc2c(c1C)C(c1ccc(C(=O)N(C)CCCc3ncc(C(=O)N[C@H]4C(C)(C)[C@H](Oc5ccc(C#N)c(Cl)c5)C4(C)C)cn3)cc1)=N[C@@H](Cc1ncco1)c1nnc(C)n1-2 [Compound I-342] | > 3000 | > 3000 | > 3000 | > 3000 |  |  |  | 
Cc1sc2c(c1C)C(c1ccc(CN3CC(=O)N4C[C@@H](c5ncc(C(=O)N[C@H]6C(C)(C)[C@H](Oc7ccc(C#N)c(Cl)c7)C6(C)C)cn5)C[C@H]4C3=O)cc1)=N[C@@H](Cc1ncco1)c1nnc(C)n1-2 [Compound I-358] | < 500 | > 3000 | < 500 | 500 to 1500 |  |  |  | 
Cc1sc2c(c1C)C(c1ccc(O[C@@H]3CC[C@]4(CCCN(c5ncc(C(=O)N[C@H]6C(C)(C)[C@H](Oc7ccc(C#N)c(Cl)c7)C6(C)C)cn5)C4)C3)cc1)=N[C@@H](Cc1ncco1)c1nnc(C)n1-2 [Compound I-202] | < 500 | > 3000 | < 500 | 500 to 1500 |  |  |  | 
